These results are taken from patent US11591288B2, “Compositions and methods for treating atherosclerotic cardiovascular disease” (GAVISH-GALILEE BIO APPLICATIONS LTD., priority 2017, dated 2023).

For experiment [1], the target named is T1, human serum PON1 (Homo sapiens, UniProt P27169).
T1 construct: tissue Industries biologic (Bet-Haemk, Israel); host or cells: human serum
Briefly: Human serum PON1 lactonase activity (dihydrocoumarin assay). It counts as biochemical. Particulars: 4 h, 37° C., 1.8 units without lyso-DGTS. On the procedure:
200 μl of human serum diluted by 20 with phosphate-buffered saline (PBS) (PH=7.6) was incubated with lyso-DGTS at various concentrations (0, 1, 5, 10 and 50 μg/ml) for 4 h at 37° C. Then, 10 μl was taken to measure lactonase activity using the dihydrocoumarine assay.
The effect of lyso-DGTS on lactonase activity of human serum PON1 was examined. Human serum was diluted by 20 with PBS buffer and incubated with and without lyso-DGTS at concentrations of 1, 5, 10, and 50 μg/ml for 4 h at 37° C. Lactonase activity of the enzyme was measured using dihydrocoumarin assay. As shown in Example 1, lyso-DGTS increased human serum lactonase activity in a dose dependent manner up to 10 μg/ml, from 1.8 units without lyso-DGTS to 2.16, 2.82, 3.01, and 2.80 units at 1, 5, 10 and 50 μg/ml lyso-DGTS, respectively. The change at 1 μg/ml of lyso-DGTS was not statistically significant (FIG. 2).

Experiment [2] has as its system rePON1. Briefly: rePON1 arylesterase activity (phenyl acetate assay) after incubation with lyso-DGTS. The note with it: 0-100 μg/ml lyso-DGTS, 2 or 4 h, 37° C. The experiment is classed as biochemical. How it is done: To 200 μl of rePON1 solution (5 μg/ml) in Tris-HCl buffer pH=8.4 was added 1 μl of lyso-DGTS dissolved in dimethyl sulfoxide (DMSO) to a final concentration of 1, 5, 10, 50, and 100 μg/ml. 1 μl DMSO was added to the control rePON1 solution. The mixtures were incubated at 37° C. for 2, 4, 24 or 48 h.
10 μl from each solution were taken to a UV 96-well microplate wells containing 90 μl Tris-HCL buffer pH=8.4 with 1 mM CaCl2 (activity buffer). Then 100 μl phenyl acetate, 2 mM in the activity buffer was added (prepared from a stock of 100 mM phenyl acetate in DMSO). Phenyl acetate hydrolysis rate was measured at 270 nm, once in 25 seconds, for 15 minutes using SpectraMax M2 Reader. One unit of esterase activity was equal to the hydrolysis of 1 μmol of phenyl acetate/min. Lactonase and esterase unit activity were calculated by the following equation: Unit=slope (mOD/min)×5(per ml)×666.7(dilution)/700. Human Serum PON1 Lactonase Activity
The effect of lyso-DGTS on lactonase and arylesterase activities of rePON1 was examined. rePON1 (5 μg/ml in Tris buffer pH=8.4) was incubated with different concentrations of lyso-DGTS for 2, 4, 24, and 48 h at 37° C., and its lactonase and aryesterase activities were measured using dihydrocoumarin and phenyl acetate assays, respectively.

Experiment [3] in a line: Clinical parameters of the in-vivo experiment (HFD fed Balb/c mice). Details: unit not given here. Particulars: lyso-DGTS via s.c. osmotic mini-pump, 28 days; for Glucose: p < 0.05 related to vehicle group. How it is done: Eight weeks old Balb/c mice where fed with normal rodent diet (the “non” group n=11) for 12 weeks or with high-fat diet (HFD) for 8 weeks. After 8 weeks, the HFD group was divided into two groups both treated via osmotic mini-pumps implanted subcutaneously: (1) vehicle group (the pumps contained 100 μl of DDW+2% Tween 80; n=9); (2) Lyso-DGTS group (the pumps contained 100 μl lyso-DGTS 1.4 mg/ml in DDW+2% Tween 80; n=1). The mice then continued with the same diet for another 4 weeks. The pumps injected 3.5 μl solution each day for 28 days until the end of the experiment. Blood was drawn and centrifuged at 2000 rpm for five minutes, and the serum was stored at −70° C. until the analyses. Clinical parameters were measured. Serum diluted by 20 with PBS and PON1 lactonase activity was measured using dihydrocumarine assay.
The effect of lyso-DGTS on lactonase PON1 activity was examined using Balb/c mice fed with HFD. Three groups of Balb/c mice were used: 1) the “non” group […] mice which was fed with normal rodent diet for 12 weeks; 2) the “vehicle” group n=9 mice which was fed with HFD for 8 weeks and then continued with the same diet for another 4 weeks with the injection of DDW+2% Tween via osmotic mini-pumps implanted subcutaneously; and 3) the lyso-DGTS group n=1 mice which was fed similar to the vehicle group and injected with lyso-DGTS at 1.43 mg/ml in DDW+2% Tween 80 (FIG. 14). At the end of the protocol, blood was withdrawn and clinical parameters and lactonase PON1 activity were measured. […] Lactonase PON1 activity of the mice serum was measured using dehydrocumarine assay.

Experiment [4] relates to HDL isolated from Balb/c mice. Briefly: Pro-/anti-inflammatory properties of HDL isolated from HFD fed Balb/c mice, cell free assay. It counts as in vivo. Particulars: HDL from HFD mice given lyso-DGTS 1.43 mg/ml, 3.5 μl a day, 28 days; fluorescence without HDL = 1.0; p<0.05. On the procedure: Balb/c mice fed with normal rodent diet (the “non” group; n=11) or HFD received treatment administered via subcutaneously implanted osmotic mini-pumps: 1) vehicle group injected with DDW+2% Tween 80 (n=9); 2) lyso-DGTS group injected with lyso-DGTS (1.43 mg/ml in DDW+2% Tween 80; n=1). At the end of the protocol, serum was obtained, HDL was isolated, and its pro-inflammatory/anti-inflammatory properties were determined using cell free assay (CFA). Fluorescence in the absence of HDL was normalized to 1.0. Values>1.0, after addition of the tested HDL, indicated pro-inflammatory activity; and values<1.0 indicated anti-inflammatory activity. (*p<0.05).
In order to examine the effect of lyso-DGTS on HDL-anti-inflammatory effects in-vivo, 3.5 μl lyso-DGTS a day were administered for 28 days, via a subcutaneously implanted osmotic mini-pump, to HFD fed mice. As described in Example 12, the mice were divided into three groups: 1) mice fed with regular diet for 12 weeks (the “non” group; […]); 2) mice fed with HFD for 12 weeks and injected with lyso-DGTS (1.43 mg/ml in DDW+2% Tween) from week 9 (the lyso-DGTS group; n=1); and 3) mice fed with HFD for 12 weeks and injected with DDW+2% Tween (the vehicle group; n=9).

T1 sequence (P27169 whole entry): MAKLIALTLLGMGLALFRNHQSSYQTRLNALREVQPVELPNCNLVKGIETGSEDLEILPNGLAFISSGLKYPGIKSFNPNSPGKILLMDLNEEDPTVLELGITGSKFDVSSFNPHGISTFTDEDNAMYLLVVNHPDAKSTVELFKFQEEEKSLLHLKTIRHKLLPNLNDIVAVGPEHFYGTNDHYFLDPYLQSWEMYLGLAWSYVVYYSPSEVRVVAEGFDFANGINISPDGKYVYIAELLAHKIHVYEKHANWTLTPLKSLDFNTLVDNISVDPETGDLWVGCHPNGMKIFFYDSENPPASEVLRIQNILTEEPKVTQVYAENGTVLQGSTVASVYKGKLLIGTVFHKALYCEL

For the molecule `CC/C=C\C/C=C\C/C=C\C/C=C\C/C=C\CCCC(=O)OCC(O)COCCC(C(=O)[O-])[N+](C)(C)C` (centres unmarked) [lyso-DGTS, lyso-diacylglyceryltrimethylhornmoserine], the “human serum PON1 lactonase activity” value worked out at 2.16 units in experiment [1] (1 μg/ml lyso-DGTS, change not statistically significant); 2.82 units in experiment [1] (5 μg/ml lyso-DGTS); 3.01 units in experiment [1] (10 μg/ml lyso-DGTS); 2.80 units in experiment [1] (50 μg/ml lyso-DGTS). The “effect on rePON1 arylesterase activity” value in experiment [2] is “increases rePON1 lactonase and arylesterase activities in a dose and time dependent manner”. In experiment [3], this molecule displayed a Cholesterol of 4.03 ± 0.40. In experiment [3], this molecule returned an HDL of 4.37 ± 0.42. This molecule returned a Triglycerides in experiment [3] of 0.84 ± 0.26. Also, the Glucose in experiment [3] is 5.99±1.4; in experiment [3] (listed as Lyso-DGTS), 5.99 ± 1.4. For the same molecule, in experiment [4], the HDL inflammatory value is listed as less than 1.
